{"source": "patent US12169196B2", "about": "“Human iPSC-based drug testing platform for muscular dystrophy” (The Johns Hopkins University, priority 2019, dated 2024)", "key": {"[1]": {"tested_on": "mdx^5cv mice", "assay": "Evans blue staining and central nucleated fiber histology", "format": "in vivo, mouse", "settings": "8 weeks treatment", "excerpt": "(§1) All animal experiments were approved by the Institutional Animal Care and Use Committee (IACUC) of The Johns Hopkins University, School of Medicine (Baltimore, Maryland). Mdx^5cv (B6Ros.Cg-Dmdmdx-5Cv/J) were obtained from The Jackson Laboratory. Mice were maintained in a 12-h light cycle (7 am-7 pm) with ad libitum access to food and water. […] Ginsenoside Rd was suspended in saline containing 10% 1,3-propanediol as vector.\nGastrocnemius, tibialis anterior, and diaphragm muscles were embedded in OCT, frozen in isopentane, and cross-sectioned (˜2-10 μm thickness). The sections were also stained with DAPI to visualize nuclei. In mice where Evans blue dye (EBD, 10 mg/ml) was used to evaluate membrane damage, EBD was injected at 0.05 ml/10 g intraperitoneally, 24 hours before sacrificing the mice. To evaluate EBD staining, gastrocnemius muscle sections were fixed with acetone and imaged with fluorescence microscopy. The area of EBD as a percentage of total area was calculated. To evaluate the number of central nucleated fibers, sections of the tibialis anterior muscle were stained with hematoxylin and eosin. Central nucleated fiber number was counted and analyzed against total fiber number. Diaphragm sections (10 μm) were stained with Masson's trichrome to determine collagen content. The stained areas were quantified against the total area."}, "[2]": {"tested_on": "mdx^5cv mice", "assay": "Forelimb grip strength", "format": "in vivo, mouse", "settings": "8 weeks treatment", "method": "as §1\n(§2) Forelimb grip strength was measured as maximal tensile force using a computerized force transducer (Grip Strength Meter, Bioseb). Five measurements were performed for each animal and the maximum value was used for the analysis. Treadmill testing was performed using a motor-driven treadmill (Columbus Instruments). Prior to the test day, acclimatization was performed 5 times over a period of 2 weeks at 10 m/min. On the test day, mice ran at 5 m/min for 5 min (warm up) and the speed was increased 1 m/min every min up to 10 m/min. Mice were considered exhausted when they sat for more than 10 sec on a shock pad for the third time."}, "[3]": {"tested_on": "mdx^5cv mice", "assay": "Treadmill running", "format": "in vivo, mouse", "settings": "1344 h", "method": "as §1, §2"}, "[4]": {"tested_on": "D2 myoblasts", "method": "FIG. 7A: 9 primary hit compounds dose-response measured by MyHC antibody immunofluorescent intensity/nuclei. Concentrations of compounds were 0.001, 0.01, 0.1, 1, 2, 3, 4, 6 μM, except for saponin Q. which was 0.001, 0.01, 0.1, 0.2, 0.4, 0.6, 1 μM (n=3 for all). FIG. 7B: 9 primary hit compounds dose-response measured by α-actinin antibody immunofluorescent intensity/nuclei. Concentrations were same as in (FIG. 7A) (n=3 for all). FIGS. 7C-7E: Dose-response measured by cell average length of 3 analogs of saponin Q (n=3). […] (Data=Mean±SEM).\nTo further evaluate the efficacy of the 9 hit compounds and determine their optimal concentrations, an 8-point dose response assay was conducted, based on three parameters: anti-MyHC immunocytochemistry, anti-α-actinin immunocytochemistry and average cell length (FIGS. 7A-7B)."}, "[5]": {"tested_on": "MEF2C", "assay": "MEF2C protein expression by Western blot and immunocytochemistry in D2 myoblasts", "format": "cell-based, human", "excerpt": "FIG. 2C: Representative image of ginsenoside Rd-treated myoblasts labeled by MyHC. FIG. 2E Cell average length dose-response curve of ginsenoside Rd (FIGS. 2E-2F) Western blot quantification of MEF2C protein level post Saponin Q. and ginsenoside Rd treatment alongside healthy hiPSC derived myoblasts control and DMSO negative controls, *P 5 0.05, n=3. FIG. 2G: Quantification of MEF2C expressing nuclei of saponin Q. and ginsenoside Rd-treated D2 myoblasts, n=3, *P 5 0.05. (Data=Mean±SEM, one-way ANOVA with Dunnett's multiple comparison test with DMSO negative control).\n(§3) Whole-cell extracts were prepared by lysing cells on plate with RIPA buffer (CST) supplemented by proteinase inhibitor and phosphatase inhibitor cocktail (CST). Western blotting was performed according to the standard protocol using precast NuPAGE (4-12%) Bis-Tris gel (Invitrogen). Protein transfer was performed with the Bio-Rad turbo or wet/tank blotting system. Nitrocellulose membranes were incubated with primary antibodies overnight at 4° C. Membranes were then incubated with a secondary IRDye 800 conjugated anti-rabbit IgG, or Alexa Fluor 680 anti-mouse IgG and proteins were visualized and quantified using the LI-COR Odyssey Infrared Imaging System (LI-COR). Primary antibodies applied in this study were all purchased from Cell Signaling Technology except for the MEF2C antibody, which was from Sigma."}, "[6]": {"tested_on": "mdx^5cv mice", "assay": "Tibialis anterior muscle strength and rate of fatigue", "format": "in vivo, mouse", "excerpt": "as §1\nTibialis anterior muscle strength (maximal isometric force) and rate of fatigue were measured. Briefly, animals were anaesthetized with 3-5% isoflurane and placed in a supine position. The tibia was stabilized and the distal tendon of the tibialis anterior (TA) was surgically released and attached to the load cell (FT03, Grass Instruments, Warwick, RI). The load cell was adjusted via a micromanipulator to stretch the muscle to resting length (aka, optimal length). TA contraction was then triggered via subcutaneous stimulation of the fibular nerve, and the resulting force generated was sampled at 1 kHz and analyzed with acquisition software (PolyVIEW™ 16, Grass Instruments). After contractile function experiments, animals were euthanized and the TAs were harvested and weighed. […] To provide an index of fatigue, muscle tension was measured after 5 minutes of tetanic stimulation (200 ms train duration) repeated at 1 Hz and expressed as a percentage of initial tension."}, "[7]": {"tested_on": "p21 (WAF1/CIP1)", "assay": "Western blot of p21 protein expression in D2 myoblasts", "format": "cell-based, human", "settings": "ginsenoside 25 μM or FLT3 recombinant protein 100 ng/ml, 30 min", "method": "FIG. 3A: Top pathways selected by ingenuity pathway analysis of microarray result from ginsenoside Rd and fenofibrate-treated D2 myoblasts for 24 hours. Absolute z-score values above 2 were highlighted in red. FIGS. 3B and 3D: Quantification of western blot of p21 protein expression in D2 myoblasts treated with ginsenoside (25 μM), FLT3 recombinant protein (100 ng/ml) or DMSO for 30 min, n=4, *P≤0.05. FIG. 3C, 3E: Quantification of western blot of phosphorylated ERK 1/2 (p-ERK 1/2) in D2 myoblasts treated with ginsenoside (25 μM), FLT3 recombinant protein (100 ng/ml) or DMSO for 30 min, n=4, *P≤0.05. […] (Data=Mean±SEM, FIGS. 3D, 3E: one-way ANOVA with Dunnett's multiple comparison test with DMSO negative control, FIG. 3G: one-way ANOVA with Tukey's multiple comparison test).\nas §3, with “Nitrocellulose membranes were incubated with primary antibodies overnight at 4° C.” left out, “Primary antibodies applied in this study were all purchased from Cell Signaling Technology except for the MEF2C antibody, which was from Sigma.” left out"}, "[8]": {"tested_on": "ERK1/2", "assay": "Western blot of phosphorylated ERK 1/2 in D2 myoblasts", "format": "cell-based, human", "settings": "ginsenoside 25 μM or FLT3 recombinant protein 100 ng/ml, 30 min", "procedure": "Whole-cell extracts were prepared by lysing cells on plate with RIPA buffer (CST) supplemented by proteinase inhibitor and phosphatase inhibitor cocktail (CST). […] Protein transfer was performed with the Bio-Rad turbo or wet/tank blotting system. Nitrocellulose membranes were incubated with primary antibodies overnight at 4° C. Membranes were then incubated with a secondary IRDye 800 conjugated anti-rabbit IgG, or Alexa Fluor 680 anti-mouse IgG and proteins were visualized and quantified using the LI-COR Odyssey Infrared Imaging System (LI-COR). Primary antibodies applied in this study were all purchased from Cell Signaling Technology except for the MEF2C antibody, which was from Sigma."}}, "note": "Entries after “also recorded” stand apart in the source; their conditions may differ.", "data": [{"smiles": "CC(C)=CCC[C@](C)(O[C@@H]1O[C@H](CO)[C@@H](O)[C@H](O)[C@H]1O)[C@H]1CC[C@]2(C)[C@@H]1[C@H](O)C[C@@H]1[C@@]3(C)CC[C@H](O[C@@H]4O[C@H](CO)[C@@H](O)[C@H](O)[C@H]4O[C@@H]4O[C@H](CO)[C@@H](O)[C@H](O)[C@H]4O)C(C)(C)[C@@H]3CC[C@]12C", "note": "[ginsenoside Rd]", "values": [{"measurement": "number of Evans blue dye positive fibers", "setting": "[1]; gastrocnemius", "value": "not significantly different"}, {"measurement": "central nucleated fibers", "setting": "[1]; tibialis anterior", "value": "not significantly different"}, {"measurement": "improvement of forelimb grip strength", "setting": "[2]", "value": 19, "unit": "%"}, {"measurement": "improvement of endurance on treadmill running", "setting": "[3]", "value": "no effect"}, {"measurement": "fusion of DMD hiPSC-derived myoblasts", "setting": "[4]", "value": "helped restore fusion"}, {"measurement": "toxicity / cell death", "setting": "[4]", "value": "lower toxicity"}, {"measurement": "dose-dependent effect on D2 myoblasts (cell average length)", "setting": "[4]; saponin analog test", "value": "dose-dependent effect"}, {"measurement": "levels of MEF2C protein expression (Western blot)", "setting": "[5]; vs DMSO", "value": "increased"}, {"measurement": "MEF2C expressing cells (immunocytochemistry)", "setting": "[5]; vs vector control", "value": "more MEF2C expressing cells"}, {"measurement": "susceptibility of TA muscles to fatigue (repeated maximal isometric contractions)", "setting": "[6]; compared to mdx TA muscles", "value": "less susceptible to fatigue; also recorded: increased their resistance to fatigue"}, {"measurement": "maximal isometric force generated by tibialis anterior (TA)", "setting": "[6]; compared with sham control", "value": "no significant difference"}, {"measurement": "levels of p21", "setting": "[7]", "value": "Increased levels of p21"}, {"measurement": "ERK1/2 activation (p-ERK 1/2)", "setting": "[8]", "value": "activated"}]}]}
